Biological target: T1, SMYD2 (Homo sapiens, UniProt Q9NRG4)
T1 construct: Full length SMYD2 (NP 064582.2) was cloned; His6 (N, cleaved yes); FLAG (N); made in house; host or cells: Sf9 insect cells
Test: SMYD2 Biochemical Assay (3H-SAM, biotinylated peptide substrate, Flashplate)
Details: IC50 values are an average of n = 1 to n = 50; read-out: SMYD2 Biochem IC50 (μM)*
From the text: S-adenosylmethionine (SAM), S-adenosylhomocysteine (SAH), bicine, Tween20, dimethylsulfoxide (DMSO), bovine skin gelatin (BSG), and Tris(2-carboxyethyl)phosphine hydrochloride (TCEP) were purchased from Sigma-Aldrich at the highest level of purity possible. ^3H-SAM was purchase from American Radiolabeled Chemicals with a specific activity of 80 Ci/mmol. 384-well streptavidin Flashplates were purchased from PerkinElmer.
Peptide was synthesized with a N-terminal linker-affinity tag motif and a C-terminal amide cap by 21st Century Biochemicals. The peptide was high-performance liquid chromatography (HPLC) purified to greater than 95% purity and confirmed by liquid chromatography mass spectrometry (LC-MS). The sequence was […](K-Biot)-amide. (SEQ ID No: 3)
Full length SMYD2 (NP 064582.2) was cloned into a pFastbac-Htb-lic vector with an N-terminal His6 tag and FLAG tag, preceded by a TEV protease cleavage site. The protein was expressed in Sf9 insect cells. Cells were resuspended in lysis buffer (25 mM HEPES-NaOH, pH 7.5, 200 mM NaCl, 5% glycerol, and 5 mM β-ME) and lysed by sonication. The protein was purified by Ni-NTA (Qiagen), followed by TEV cleavage to remove the His6 tag, subtractive Ni-NTA (Qiagen), and gel filtration chromatography using an […] (GE Healthcare). Purified protein was stored in 20 mM Tris-HCl, pH 8.0, 100 mM NaCl, and 1 mM TCEP.
The assays were all performed in a buffer consisting of 20 mM Bicine (pH=7.6), 1 mM TCEP, 0.005% Bovine Skin Gelatin, and 0.002% Tween20, prepared on the day of use. Compounds in 100% DMSO (1 ul) were spotted into a polypropylene 384-well V-bottom plates (Greiner) using a Platemate Plus outfitted with a 384-channel head (Thermo Scientific). DMSO (1 ul) was added to Columns 11, 12, 23, 24, rows A-H for the maximum signal control and 1 ul of SAH, a known product and inhibitor of SMYD2, was added to columns 11, 12, 23, 24, rows I-P for the minimum signal control. A cocktail (40 ul) containing the SMYD2 enzyme was added by Multidrop Combi (Thermo-Fisher). The compounds were allowed to incubate with SMYD2 for 30 min at room temperature, then a cocktail (10 ul) containing ^3H-SAM and peptide was added to initiate the reaction (final volume=51 ul). The final concentrations of the components were as follows: SMYD2 was 1.5 nM, ^3H-SAM was 10 nM, and peptide was 60 nM, SAH in the minimum signal control wells was 1000 uM, and the DMSO concentration was 2%. The assays were stopped by the addition of non-radioactive SAM (10 ul) to a final concentration of 600 uM, which dilutes the ^3H-SAM to a level where its incorporation into the peptide substrate is no longer detectable. 50 ul of the reaction in the 384-well polypropylene plate was then transferred to a 384-well Flashplate and the biotinylated peptides were allowed to bind to the streptavidin surface for at least 1 hour before being washed three times with 0.1% Tween20 in a Biotek ELx405 plate washer. The plates were then read in a PerkinElmer TopCount plate reader to measure the quantity of ^3H-labeled peptide bound to the Flashplate surface, measured as disintegrations per minute (dpm) or alternatively, referred to as counts per minute (cpm).
Where dpm=disintegrations per minute, cmpd=signal in assay well, and min and max are the respective minimum and maximum signal controls.
Where top and bottom are the normally allowed to float, but may be fixed at 100 or 0 respectively in a 3-parameter fit. The Hill Coefficient normally allowed to float but may also be fixed at 1 in a 3-parameter fit. I is the compound concentration.
SMYD2 biochemical assay data for representative Compounds of the Disclosure are presented in Tables 1-3 in the column titled “SMYD2 Biochem IC50 (μM).”

T1 sequence (Q9NRG4 whole entry): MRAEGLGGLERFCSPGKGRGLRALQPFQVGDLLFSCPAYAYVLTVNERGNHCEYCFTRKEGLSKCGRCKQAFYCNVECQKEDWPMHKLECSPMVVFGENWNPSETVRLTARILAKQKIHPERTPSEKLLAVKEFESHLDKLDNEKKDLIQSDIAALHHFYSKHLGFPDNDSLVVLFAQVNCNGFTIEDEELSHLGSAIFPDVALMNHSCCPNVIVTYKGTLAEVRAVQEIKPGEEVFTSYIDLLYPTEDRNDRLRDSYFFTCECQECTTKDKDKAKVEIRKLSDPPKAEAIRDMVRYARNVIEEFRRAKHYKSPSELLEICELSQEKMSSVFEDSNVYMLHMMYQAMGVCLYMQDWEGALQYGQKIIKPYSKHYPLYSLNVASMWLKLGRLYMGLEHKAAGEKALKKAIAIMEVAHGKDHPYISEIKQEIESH

Structure (SMILES) | IC50 [µM]
C[C@@H]1CN(Cc2ccc(Cl)cc2)C[C@H]1NC(=O)c1cc(C2CC2)on1 (racemic) [compound 140, (±)-trans-N-{1-[(4-chlorophenyl)methyl]-4-methylpyrrolidin-3-yl]-5-cyclopropyl-1,2-oxazole-3-carboxamide] | > 50
C[C@@H]1CN(CC2CCC2)C[C@H]1NC(=O)c1cc(C2CC2)on1 (racemic) [compound 156, (±)-trans-N-[1-(cyclobutyl-methyl)-4-methylpyrrolidin-3-yl]-5-cyclopropyl-1,2-oxazole-3-carboxamide] | > 50
CC[C@H]1CN(C)C[C@H]1NC(=O)c1cc(C2CC2)on1 (racemic) [compound 187, (±)-cis-5-cyclopropyl-N-[4-ethyl-1-methyl-pyrrolidin-3-yl]-1,2-oxazole-3-carboxamide] | 18.1
CC[C@H]1CN(C(C)C)C[C@H]1NC(=O)c1cc(C2CC2)on1 (racemic) [compound 188, (±)-cis-5-cyclopropyl-N-[4-ethyl-1-(propan-2-yl)pyrrolidin-3-yl]-1,2-oxazole-3-carboxamide] | 15.9
CC(C)[C@H]1CN(C(C)C)C[C@@H]1NC(=O)c1cc(C2CC2)on1 (racemic) [compound 178, (±)-trans-N-[1,4-bis(propan-2-yl)pyrrolidin-3-yl]-5-cyclopropyl-1,2-oxazole-3-carboxamide] | > 50
Cc1nn(C)cc1CN1C[C@@H](C)[C@H](NC(=O)c2cc(C3CC3)on2)C1 (racemic) [compound 183, (±)-trans-5-cyclopropyl-N-[1-[(1,3-dimethyl-1H-pyrazol-4-yl)methyl]-4-methylpyrrolidin-3-yl]-1,2-oxazole-3-carboxamide] | > 50
C[C@H]1CN(CC2CCNCC2)C[C@H]1NC(=O)c1cc(C2CC2)on1 (racemic) [compound 164, (±)-cis-5-cyclopropyl-N-[4-methyl-1-(piperidin-4-ylmethyl)pyrrolidin-3-yl]-1,2-oxazole-3-carboxamide] | 4.78
C[C@@H]1CN(Cc2ccc(N(C)C)cc2)C[C@H]1NC(=O)c1cc(C2CC2)on1 (racemic) [compound 148, (±)-trans-5-cyclopropyl-N-[1-{[4-(dimethyl-amino)phenyl]methyl}-4-methylpyrrolidin-3-yl]-1,2-oxazole-3-carboxamide] | 37
C[C@@H]1CN(Cc2ncc[nH]2)C[C@H]1NC(=O)c1cc(C2CC2)on1 (racemic) [compound 139, (±)-trans-5-cyclopropyl-N-[1-(1H-imidazol-2-ylmethyl)-4-methylpyrrolidin-3-yl]-1,2-oxazole-3-carboxamide] | > 50

Now from value to molecule:

IC50 [µM] | Structure (SMILES)
> 50 | C[C@H]1CN(c2cnccn2)C[C@H]1NC(=O)c1cc(C2CC2)on1 (racemic) [compound 302, (±)-cis-5-cyclopropyl-N-[4-methyl-1-(pyrazin-2-yl)pyrrolidin-3-yl]-1,2-oxazole-3-carboxamide]
29.5 | Cc1ccc2[nH]cc(CN3C[C@H](C)[C@H](NC(=O)c4cc(C5CC5)on4)C3)c2c1 (racemic) [compound 214, (±)-cis-5-cyclopropyl-N-[4-methyl-1-[(5-methyl-1H-indol-3-yl)methyl]pyrrolidin-3-yl]-1,2-oxazole-3-carboxamide]
40.5 | COc1ncc(CN2C[C@H](C)[C@H](NC(=O)c3cc(C4CC4)on3)C2)cc1Br (racemic) [compound 284, (±)-cis-N-{1-[(5-bromo-6-methoxypyridin-3-yl)methyl]-4-methyl-pyrrolidin-3-yl}-5-cyclopropyl-1,2-oxazole-3-carboxamide]
6.08 | C[C@H]1CN(Cc2ccc3c(c2)OCCN3C)C[C@H]1NC(=O)c1cc(C2CC2)on1 (racemic) [compound 289, (±)-cis-5-cyclopropyl-N-{4-methyl-1-[(4-methyl-3,4-dihydro-2H-1,4-benzoxazin-7-yl)methyl]pyrrolidin-3-yl}-1,2-oxazole-3-carboxamide]
41.2 | C[C@H]1CN(Cc2ccnn2C)C[C@H]1NC(=O)c1cc(C2CC2)on1 (racemic) [compound 306, (±)-cis-5-cyclopropyl-N-{4-methyl-1-[(1-methyl-1H-pyrazol-5-yl)methyl]pyrrolidin-3-yl}-1,2-oxazole-3-carboxamide]
11.6 | Cc1nc[nH]c1CN1C[C@H](C)[C@H](NC(=O)c2cc(C3CC3)on2)C1 (racemic) [compound 320, (±)-cis-5-cyclopropyl-N-{4-methyl-1-[(4-methyl-1H-imidazol-5-yl)methyl]pyrrolidin-3-yl}-1,2-oxazole-3-carboxamide]
> 50 | C[C@@H]1CN(CC(=O)N2CCN(C)CC2)C[C@H]1NC(=O)c1cc(C2CC2)on1 (racemic) [compound 294, (±)-trans-5-cyclopropyl-N-{4-methyl-1-[2-(4-methylpiperazin-1-yl)-2-oxoethyl]pyrrolidin-3-yl}-1,2-oxazole-3-carboxamide]
> 50 | C[C@H]1CN(c2ccccc2)C[C@H]1NC(=O)c1cc(C2CC2)on1 (racemic) [compound 272, (±)-cis-5-cyclopropyl-N-[4-methyl-1-phenylpyrrolidin-3-yl]-1,2-oxazole-3-carboxamide]
49.7 | C[C@H]1CN(Cc2ncc[nH]2)C[C@H]1NC(=O)c1cc(C2CC2)on1 (racemic) [compound 327, (±)-cis-5-cyclopropyl-N-[1-(1H-imidazol-2-ylmethyl)-4-methyl-pyrrolidin-3-yl]-1,2-oxazole-3-carboxamide]
25.7 | CC[C@H]1CN(C(C)C)C[C@@H]1NC(=O)c1cc(C2CC2)on1 (racemic) [compound 199, (±)-trans-5-cyclopropyl-N-[4-ethyl-1-(propan-2-yl)pyrrolidin-3-yl]-1,2-oxazole-3-carboxamide]
6.68 | CC(C)N1C[C@H](C)[C@H](NC(=O)c2cc(C(F)(F)F)on2)C1 (racemic) [compound 348, (±)-cis-N-[4-methyl-1-(propan-2-yl)pyrrolidin-3-yl]-5-(trifluoromethyl)-1,2-oxazole-3-carboxamide]
> 50 | COc1ccccc1N1C[C@H](C)[C@H](NC(=O)c2cc(C3CC3)on2)C1 (racemic) [compound 279, (±)-cis-5-cyclopropyl-N-[1-(2-methoxyphenyl)-4-methylpyrrolidin-3-yl]-1,2-oxazole-3-carboxamide]
3.02 | C[C@H]1CN(Cc2ccccc2Cl)C[C@H]1NC(=O)c1cc(C2CC2)on1 (racemic) [compound 275, (±)-cis-N-{1-[(2-chloro-phenyl)methyl]-4-methyl-pyrrolidin-3-yl}-5-cyclopropyl-1,2-oxazole-3-carboxamide]

Same assay, conditions: Table 2; average of n = 1 to n = 50; read-out: SMYD2 Biochem IC50

IC50 [µM] | Structure (SMILES)
34.2 | CCN1C[C@@H](C)[C@H](NC(=O)c2cc(C3CC3)on2)C1 (racemic) [compound 88, (±)-trans-5-cyclopropyl-N-(1-ethyl-4-methylpyrrolidin-3-yl)isoxazole-3-carboxamide]
31.8 | C[C@H]1CN(Cc2ccccn2)C[C@H]1NC(=O)c1cc(C2CC2)on1 (racemic) [compound 109, (±)-cis-5-cyclopropyl-N-(4-methyl-1-(pyridin-2-ylmethyl)pyrrolidin-3-yl)isoxazole-3-carboxamide]
> 50 | C[C@@H]1CN(C(=O)CC2CCNCC2)C[C@@H]1NC(=O)c1cc(C2CC2)on1 (racemic) [compound 71, (±)-cis-5-cyclopropyl-N-(4-methyl-1-(2-(piperidin-4-yl)acetyl)pyrrolidin-3-yl)isoxazole-3-carboxamide]

Reference: patent US20170253601A1, “Substituted Pyrrolidine Compounds” (EPIZYME, INC., priority 2014, published 2017)
